# Entries after “also recorded” stand apart in the source; their conditions may differ.
# How the values were obtained:
# [1] = test system: MCF-7 cells; assay: RNA-Seq transcriptional profiling of MCF-7 cells; type: cell-based, human; conditions: for number of genes regulated: 10 nM E2 or 1 μM PaPE-1
# Protocol: For gene expression analysis, total RNA was extracted from 3 biological replicates for each ligand treatment using Trizol reagent and further cleaned using the RNAeasy kit (QIAGEN). […] Once the sample quality and replicate reproducibility were verified, 2 samples from each group were subjected to sequencing. RNA at a concentration of 100 ng/μL in nuclease-free water was used for library construction. cDNA libraries were prepared with the mRNA-TruSeq Kit (Illumina, Inc.). Briefly, the poly-A containing mRNA was purified from total RNA, RNA was fragmented, double-stranded cDNA was generated from fragmented RNA, and adapters were ligated to the ends.
# The paired-end read data from the HiSeq 2000 were processed and analyzed through a series of steps. Base calling and de-multiplexing of samples within each lane were done with Casava 1.8.2. FASTQ files were trimmed using FASTQ Trimmer (version 1.0.0). TopHat2 (version 0.5) was employed to map paired RNA-Seq reads to version hg19 of the Homo sapiens reference genome in the UCSC genome browser in conjunction with the RefSeq genome reference annotation. Gene expression values (raw read counts) from BAM files were calculated using StrandNGS (version 2.1) Quantification tool. Partial reads were considered and option of detecting novel genes and exons was selected. Default parameters for finding novel exons and genes were specified. DESeq normalization algorithm using default values was selected. Differentially expressed genes were then determined by fold-change and p-value with Benjamini and Hochberg multiple test correction for each gene for each treatment relative to the vehicle control. Genes with fold-change >2 and p-value <0.05 were considered as statistically significant, differentially expressed. All RNA-Seq datasets have been deposited with the NCBI under GEO accession number GSE73663.
# [2] = test system: ovariectomized mice; assay: carotid artery reendothelialization after perivascular electric injury; type: in vivo
# Protocol: Carotid artery reendothelialization was studied following perivascular electric injury in mice by assessing Evans blue dye uptake 72 h after injury. Endothelial denudation and recovery after injury in this model have been confirmed by immunohistochemistry for von Willebrand Factor. […] Carotid artery denudation was performed 21d later. In select studies additional treatments included subcutaneous injections of vehicle or ICI 182,780 (360 μg/mouse) administered 3d prior to carotid injury and on the day of injury. At the end of the study, uteri were also harvested and weighed.
# [3] = test system: ovariectomized C57BL/6 mice; assay: ovariectomized mice: uterus, thymus and mammary gland effects
# [4] = test system: ovariectomized C57BL/6 mice; assay: stroke model, transient middle cerebral artery occlusion (tMCAo)
# [5] = test system: eNOS; assay: eNOS activation in primary endothelial cells (14C-L-arginine to 14C-L-citrulline); type: cell-based, bovine; conditions: 1 μM ICI 182,780; listed as ICI
# [6] = test system: LRRC54 gene; assay: LRRC54 (non-genomic gene) mRNA expression, qPCR; conditions: MCF-7 cells, 1 μM ICI pretreatment, 1 μM PaPE-1
# [7] = test system: MCF-7 cells; assay: oleic acid (OA)-induced MCF-7 cell proliferation, WST1; conditions: for OA-induced MCF-7 cell proliferation with added agent: 100 nM OA, agent 1 μM, 6 days
# [8] = test system: MCF-7 cells; assay: MCF-7 proliferation in serum from obese individuals or standard culture; conditions: 1 μM, six days
# [9] = test system: MCF-7 cells; assay: RNA-Seq of MCF-7 cells treated with OA with and without PaPE-1; type: cell-based, human; conditions: 100 nM OA, 24 h
# Protocol: FIG. 38. Identification of genes induced by OA and PaPE-1's effect on the gene regulation. (A) RNA-Seq analysis of gene expression changes induced by OA and OA+PaPE1. Heat map of the genes with significant changed expression. MCF-7 cells were treated with Veh or 100 nM OA with and without 1 μM PaPE-1 for 24 h. RNA was isolated and RNA-Seq was performed using 2 samples from each treatment group. Differentially regulated genes were determined with p<0.05 and expression fold change >2. (B) Clusters from A. regulated by OA and reversed by PaPE-1. The average gene expression level of the cluster1 (C1) and 2 (C2) identified as PaPE-1 regulated high-fat genes. In C1, there are 425 genes whose expression were found stimulated in OA but not in the OA+PaPE-1 treatment. In C2, there are 646 genes whose expression were found suppressed in the OA but restored by OA+PaPE-1 treatment. (C) Venn diagram analysis. […] (D) Examples of OA-regulated genes. Some of the top functions of the involved genes are presented.
# [10] = test system: ERα recruitment to chromatin; assay: ERα ChIP-Seq of MCF-7 cells treated with OA with or without PaPE-1; type: cell-based, human; conditions: 100 nM OA, 45 minutes
# Protocol: FIG. 39. ERα chromatin binding sites induced by OA and the effect of PaPE-1 in reversing these changes in the ERα cistrome. (A) Recruitment of ERα to chromatin in the presence of PaPE-1, OA and OA+PaPE-1. MCF-7 cells were treated with Veh and 100 nM OA with or without 1 μM PaPE-1 for 45 minutes. ERα-DNA complexes were pulled down using ERα antibodies. Three biological replicates were pooled and sequenced. Clustering of ERα binding sites in treatments of Veh (0.1% EtOH), PaPE-1 (1 μM), OA (100 nM), and OA (100 nM)+PaPE-1 (1 t.M) was done using seqMINER software. (B) Validation of effect of OA and PaPE-1 on the ERα binding at regulatory region of PgR, CISH and SREBP1C using ChIP-qPCR. MCF-7 cells were treated with Veh and 100 nM OA with or without 1 μM PaPE-1 for 45 minutes. ERα-DNA complexes were pulled down using ERα antibodies. Recruitment of ERα to PgR (chr11:100,904,522-100,905,458), CISH (chr3:50,642,336-50,643,191) and SREBP1 (chr17:17,743,329-17,743,912) sites were quantified by Q-PCR. The experiment was repeated 3 times with at least duplicates each time. Mean±SEM is plotted. […] Mean±SEM is plotted. (C) Binding sites whose ERα occupation increased upon OA treatment (cluster marked by * in B). The ERα binding sites were separated into four clusters of characteristic patterns: C1, C2, C3 and C4. […]
# [11] = test system: mTOR pathway; assay: OA-induced mTOR pathway activation in MCF-7 cells, western blot; conditions: 100 nM OA, time course
# [12] = test system: ERα-SRC3 interaction; assay: tr-FRET assay of SRC3 coactivator binding to ERα; type: biochemical; conditions: 10 nM E2-ERα complex
# Excerpt: Using a time-resolved Forster resonance energy transfer (tr-FRET) assay, the binding of the steroid receptor coactivator 3 (SRC3) to ERu was monitored.
# [13] = test system: PgR gene; assay: PgR (genomic gene) mRNA expression, qPCR; conditions: MCF-7 cells; 1 μM PaPE or 10 nM E2 for 4 h where stated; versus vehicle or E2
# [14] = test system: LRRC54 gene vs PgR gene; assay: preferential activation of non-genomic (LRRC54) over genomic (PgR) gene; conditions: relative to activation by E2
compound,measurement,setting,value
"C[C@]12CC[C@@H]3c4ccc(O)cc4CC[C@H]3[C@@H]1CC[C@@H]2O [Compound E2, estradiol, reference compound]",regulated genes blocked by MAPK inhibitor AZD6244,"[1]; 1 μM AZD6244, 4 h",23%
same,regulated genes blocked by mTOR pathway inhibitor PP242,"[1]; 1 μM PP242, 4 h",40%
same,number of genes regulated,[1]; 4 h,~1500 genes
same,number of genes regulated,[1]; 24 h,about 3000 genes
same,uterine weight in reendothelialization study,"[2]; mouse, in vivo",greatly elevated; also recorded: increases uterine weight
same,mammary gland ductal morphology,[3]; 3 weeks,elicited marked ductal growth
same,uterine weight,"[3]; E2 5 μg/day, PaPE up to 300 μg/day",very effective in increasing growth of the uterus; also recorded: markedly increased
same,reduction of leukocytes infiltrated in the brain,[4]; 3 days post-stroke,63%
same,uterine wet weight,[4]; compared with vehicle,caused an increase in uterine wet weight
"C[C@]12CC[C@@H]3c4ccc(O)cc4C[C@@H](CCCCCCCCC[S+]([O-])CCCC(F)(F)C(F)(F)F)[C@H]3[C@@H]1CC[C@@H]2O (stereo partly shown) [ICI 182,780, Fulvestrant]",endothelial repair responses elicited by E2 and PaPE-1 with antiestrogen,"[2]; ICI 182,780 360 μg/mouse",fully prevented
same,uterine stimulation by E2 with antiestrogen,"[2]; mouse, in vivo",blocked uterine stimulation by E2
same,eNOS / NOS stimulation by E2 and PaPEs with antiestrogen,[5],fully attenuated; also recorded: fully blocked
same,activation of LRRC54 gene expression by PaPE-1 in presence of antiestrogen,[6],blocked
same,OA-induced MCF-7 cell proliferation with added agent,[7],blocked OA-induced cell proliferation; also recorded: suppressed
same,inhibition of MCF-7 proliferation in normal cell culture conditions,[8],better agents
"CCCCCCCC/C=C\CCCCCCCC(=O)O [OA, oleic acid]",genes downregulated by OA,[9],about 500 genes
same,genes upregulated by OA,[9],about 350 genes
same,ERα recruitment to chromatin upon OA,[10],recruited to novel chromatin sites upon OA treatment
same,MCF-7 cell proliferation with free fatty acid,[7]; 1 and 100 nM,very efficient in increasing cell proliferation in MCF-7 cells
same,mTOR pathway activation by OA,[11],"robust activation of mTOR pathway downstream targets Akt, S6 and 4EBP1"
"CC/C(=C(\c1ccc(O)cc1)c1ccc(OCCN(C)C)cc1)c1ccccc1 [OH-Tam, trans-hydroxytamoxifen, reference compound]",reversal of the E2-promoted ER-SRC3 interaction,[12],reversed the ER-SRC3 interaction promoted by E2
same,"PgR (genomic gene) mRNA expression, in words",[13],slight stimulation of the PgR gene
same,OA-induced MCF-7 cell proliferation with added agent,[7]; listed as 4-OH-Tamoxifen,blocked OA-induced cell proliferation; also recorded: suppressed
same,"preference for activation of the non-genomic pathway (LRRC54 over PgR), in words",[14],Neither Raloxifene (RAL) nor hydroxytamoxifen (TOT) show selective activation of the non-genomic gene LRRC54
same,inhibition of MCF-7 proliferation in normal cell culture conditions,[8],better agents

# Reference: patent US10703698B2, “Compounds which activate estrogen receptors and compositions and methods of using the same” (The Board of Trustees of the University of Illinois, priority 2016, dated 2020)
